The target of assay [1] is T1, BioA (Mycobacterium tuberculosis, UniProt P9WQ81). Type of assay: biochemical.
Assay [2] has as its target T1, BioA. Particulars: biodisc assay ref 37; cited from earlier work.
Assay [3] addresses T1, BioA. Particulars: cited from earlier work.

Consider four compounds from PMC3135573 (Analytical biochemistry, 2011).

Where two headings read alike, the source gives them in different places. Marks after values point to notes of the source that are not given here.

T1 sequence (P9WQ81 whole entry, looked up): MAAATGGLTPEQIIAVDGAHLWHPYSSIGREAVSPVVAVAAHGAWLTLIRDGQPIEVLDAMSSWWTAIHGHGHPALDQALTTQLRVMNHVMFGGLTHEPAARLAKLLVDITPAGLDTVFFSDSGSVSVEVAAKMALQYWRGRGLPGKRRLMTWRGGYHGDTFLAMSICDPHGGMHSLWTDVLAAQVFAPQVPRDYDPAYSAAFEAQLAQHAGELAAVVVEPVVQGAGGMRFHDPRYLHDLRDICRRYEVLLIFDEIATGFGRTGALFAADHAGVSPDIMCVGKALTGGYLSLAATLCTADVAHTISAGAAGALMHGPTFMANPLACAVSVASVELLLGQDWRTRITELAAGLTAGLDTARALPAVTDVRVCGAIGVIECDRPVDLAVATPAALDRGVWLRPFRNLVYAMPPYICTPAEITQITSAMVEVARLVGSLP

In the case of `C[S+](CC[C@H](N)C(=O)[O-])C[C@H]1O[C@@H](n2cnc3c(N)ncnc32)[C@H](O)[C@@H]1O` (stereo partly drawn) [SAM, S-adenosyl methionine], the KmSAM at BioA [1] (this study, 50 nM BioA, 12.5 μM KAPA, SAM 0.12–15 mM) is listed as 1.17 ± 0.06 mM; at BioA [2], 1.4 ± 0.3 ^a mM.
Regarding `C[C@@H](N)C(=O)CCCCCC(=O)O` [(R)-KAPA], the “inhibition of BioA (in words)” value on BioA [3] is reported as “potent inhibitor of BioA”.
`O[C@@H](CS)[C@@H](O)CS` (racemic) [DTT, dithiothreitol]: the “decrease of the initial velocity” value at BioA [1] (addition of 2 mM DTT) was 18%.
Turning to `C[C@H](N)C(=O)CCCCCC(=O)O.Cl` [KAPA, (S)-8-Amino-7-oxononanoic acid hydrochloride salt], the KmKAPA was 1.9 ± 0.1 µM at BioA [1] (this study, 50 nM BioA, 5 mM SAM, KAPA 0–12.5 μM) and 1.3 ± 0.3 ^a μM on BioA [2].
